This note sets out measurements from US8911998B2, “Methods for identifying fragile histidine triad (FHIT) interaction and uses thereof” (priority 2007, dated 2014).

Peptide text beside a SMILES is read from it. * marks the point of attachment. Cbz = O=C(OCc1ccccc1)*

One data set deals with PonA-induced D1 cells. The data set is described as follows: Immunoblot of caspase 3 and Parp1 cleavage. Type of data set: cell-based. The note with it: 48 h; paclitaxel 50 and 100 ng/ml, cisplatin 0.05 and 0.1 mM; compared with untreated cells. As for the experimental part:
FIG. 6E, caspase 3 and Parp1 cleavage: immunoblot analyses, using Fhit, caspase 3, and Parp1 antisera, of total cell lysates from PonA-induced D1 cells after 48 h of treatment with paclitaxel (50 and 100 ng/ml) or cisplatin (0.05 and 0.1 mM). GAPDH served as loading control.
At 24 and 72 h (data not shown) increased sub-G1 populations in D1 compared with E1 cells were also detected. To determine whether the sub-G1 fractions of D1 cells represented apoptotic cells, lysates were prepared from drug-treated cells at 48 h and immunoblot analysis performed for caspase 3 and Parp1 cleavage (FIG. […]).
(§1) Western Blot Analysis—Immunoblot analyses were performed as described (13) using monoclonal anti-pentaHis (Qiagen); rabbit polyclonal anti-Fhit (Zymed Laboratories Inc.); rabbit polyclonal antisera against GFP, Hsp60, Hsp10, and cytochrome c (Santa Cruz Biotechnology); rabbit polyclonal anti-Fdxr (Abcam); monoclonal anti-CoxIV (Molecular Probes); anti-V5 (Sigma); anti-Parp1 (Santa Cruz Biotechnology); and anti-caspase 3 (Cell Signaling). Protein levels were normalized relative to β-actin or/and GAPDH^3 level, detected with appropriate antisera (Santa Cruz Biotechnology).
In general terms: A western blot detects proteins with antibodies after separation by electrophoresis.

Data set [1] relates to H1299 E1 cells. Kind of data set: Flow cytometry (propidium iodide) of PonA-treated Fhit-negative control cells. The note with it: for sub-G1 population: 48 h. It counts as cell-based.
Description: (§8) FIG. 4E, FACS analysis of D1 and E1 cell cycle kinetics at 48 h after oxidative stress treatment. Cells were treated with PonA for 48 h and then with increasing concentrations of H2O2 (0.25 and 0.5 mM) for 4 h. Analysis was at 48 h after H2O2 treatment. All experiments were performed twice in triplicate.
(§9) FIG. 6C and FIG. 6D, the graphs show representative results of flow cytometry analyses of E1 and D1 cells. Cells were treated with PonA for 48 h and then with paclitaxel (50-500 ng/ml) (FIG. 6C) or cisplatin (0.05-0.2 mM) (FIG. 6D). Each data point was measured in triplicate at 24, 48, and 72 h (data shown for 48 h).
(§10) PonA-induced H1299 D1 and E1 cells were treated with 0.25 and 0.5 mM H2O2 or with chemotherapeutic drugs and incubated for varying times, as indicated in the text and figures. For both experiments the cells were collected, washed with phosphate-buffered saline, and resuspended in cold 70% ethanol. For analysis, cells were spun down, washed in phosphate-buffered saline, and suspended in 0.1 mg/ml propidium iodide/Triton X-100 staining solution (0.1% Triton X-100, 0.2 mg/ml DNase-free RNase A) for 30 min at room temperature and analyzed by flow cytometry.
Data set [2] deals with H1299 D1 cells. Kind of data set: Flow cytometry (propidium iodide) of PonA-induced Fhit-expressing cells. Type of data set: cell-based. The note with it: for sub-G1 population: 48 h.
Description: as §8, §9, §10
The test system of another data set is H1299 D1 and E1 cells. The data set is described as follows: MTS cell viability assay, D1 compared with E1 cells. The note with it: for sensitivity of D1 cells relative to E1 cells (MTS cell viability): after induction of Fhit expression, paclitaxel 50-500 ng/ml or cisplatin 0.05-0.2 mM, 24 or 48 h. As to the method:
FIG. 4D, MTS cell viability assays were performed on E1 and D1 cells. Cells were treated with PonA for 48 h and then with increasing concentrations of H2O2 (0.125, 0.25, and 0.5 mM) for 4 h. Analysis was at 24 h after H2O2 treatment. Columns report the average of four experiments ±S.E. Each point was measured in quadruplicate and standard deviation calculated; p<0.05 was considered significant.
MTS assays performed on E1 and D1 cells. Cells were treated with PonA for 48 h and then treated with paclitaxel (50-500 ng/ml) (FIG. 6A) or cisplatin (0.05-0.2 mM) (FIG. 6B) for 24 or 48 h.
Chemotherapeutic Drug Treatment—Paclitaxel (Sigma) was dissolved in DMSO as a 10 mmol/liter stock solution and stored at −80° C. Cisplatin (Sigma) was dissolved in water and freshly prepared before use. H1299 D1 and E1 cells were seeded (1×10^4 cells/well) in 96-well culture plates, PonA-induced, and after 24 h treated with paclitaxel (50, 100, and 500 ng/ml) or cisplatin (0.05, 0.1, and 0.2 mM). H1299 D1 and E1 cells PonA-induced were incubated for 24, 48, and 72 h and assessed for viability with an MTS kit (Cell Titer 96® Aqueous MTS kit, Upstate Biotechnology, Lake Placid, N.Y.), as recommended by the manufacturer.
On the technique in general: Tetrazolium assays rely on reduction of a dye to a coloured formazan, in cell work by metabolically active cells.

In data set [3] the test system is H1299 D1 cells. The data set is described as follows: ROS assessment by hydroethidine FACS, Fhit-positive cells. Type of data set: cell-based. The note with it: 5 μM PonA 48 h. As for the experimental part:
(§2) FIG. 4B, FACS analysis for ROS assessment by the fluorescence produced from the oxidation of hydroethidine in D1 and E1 cells; 48 h after PonA treatment, cells were treated for 5 h with 0.5 and 1.0 mM H2O2 and oxidative stress was measured; % positive refers to the fraction of fluorescent cells, indicating ROS. These experiments were repeated three times with similar results.
(§3) A similar experiment was performed with p53 and Fhit negative lung cancer-derived H1299 D1 and E1 clones carrying PonA-inducible FHIT and empty vector expression plasmids, respectively; the cells were treated with 5 μM PonA and at 48 h treated with 0.5 and 1.0 mM H2O2; the % ROS-positive cells was higher in Fhit-positive D1 cells than in E1 control cells (20 versus 3.5% at 0.5 mM H2O2, and 78 versus 25% at 1.0 mM H2O2, respectively) (FIG. 4B).
(§4) Assessment of Intracellular Reactive Oxygen Species (ROS)—Intracellular superoxide was measured through ethidium fluorescence as a result of oxidation by hydroethidine (dihydroethidium-HE; Molecular Probes). […] Fluorescence was measured by flow cytometry. […] DCF fluorescence was measured by flow cytometry on a FAC-Scan flow cytometer and fluorescence microscopy.

The test system of another data set is H1299/D1 cells. The data set is described as follows: Colony formation assay. Type of data set: cell-based. The note with it: Fhit-expressing cells, 0.25 mM or higher H2O2, 5-h treatment. As for the experimental part: FIG. 4F, colony formation assay of H1299/D1 and H1299/E1 cells after […] PonA stimulation and a 5-h H2O2 treatment at the indicated concentrations.

The subject of data set [4] is H1299 E1 cells. The data set is described as follows: ROS assessment by hydroethidine FACS, control cells. The note with it: 5 μM PonA 48 h. Type of data set: cell-based. As for the experimental part: as §2, §3, §4
Another data set relates to MKN74A116 cells. Kind of data set: ROS assessment in gastric cancer cells expressing exogenous Fhit. Type of data set: cell-based, human. The note with it: Fhit-expressing MKN74 cells, 2 mM H2O2, 5 hr. As to the method:
FIG. 10. TABLE 2, Fhit induces generation of ROS in MKN74 gastric cancer cells. ROS assessment was performed with MKN74A116, a human gastric cancer cell line carrying a p53 mutant allele and expressing exogenous Fhit; Fhit-negative MKN74E4 cells were used as a control. To induce ROS generation, we treated MKN74 cells for 5 hr with 0.5, 1.0 and 2.0 mM H2O2. […] Numbers report the average of four experiments ±S.E.
(§5) Assessment of Intracellular Reactive Oxygen Species (ROS)—Intracellular superoxide was measured through ethidium fluorescence as a result of oxidation by hydroethidine (dihydroethidium-HE; Molecular Probes). MNK74 stably Fhit expressing cells, A549 cells transiently expressing Fhit, and H1299 inducible Fhit expressing cells were treated with 0.5, 1.0, 2.0, and 4.0 mM H2O2 at 37° C.; 4 h later, hydroethidine (10 μM) was added to cells and incubated for 15 min at 37° C. Fluorescence was measured by flow cytometry. Dichlorofluorescein diacetate (DCFH-DA) (Molecular Probes) was used in D1 cells expressing induced Fhit, stressed with H2O2 (0.1 to 1.0 mM), treated with 10 μM DCFH-DA, and incubated for 1 h at 37° C. DCF fluorescence was measured by flow cytometry on a FAC-Scan flow cytometer and fluorescence microscopy.

Data set [5] relates to A549 cells transiently expressing Fhit. Kind of data set: Intracellular superoxide (ROS) by hydroethidine FACS, FHIT plasmid-transfected cells. It counts as cell-based, human. As to the method:
(§6) FIG. 4A, fluorescence-activated cell sorter (FACS) analysis for ROS assessment in A549 cells 48 h after transfection with FHIT plasmid, with and without a 5-h H2O2 treatment. Empty vector-transfected cells served as control. Intracellular superoxide was determined according to the fluorescence of ethidium as a result of oxidation of hydroethidine by O2. M2 refers to the fraction of ROS positive cells.
(§7) The inventors herein then investigated determine whether ROS production could be involved in Fhit-mediated apoptosis. […] The inventors examined ROS production in A549 cells, with and without H2O2 treatment, after transient transfection with the FHIT expression plasmid. Intracellular superoxide was assessed by measuring ethidium fluorescence, as a result of oxidation of hydroethydine by superoxide. Intracellular superoxide was measured 5 h after stimulation with increasing concentrations of H2O2.
as §5

Data set [6] relates to A549 cells (empty vector). Kind of data set: Intracellular superoxide (ROS) by hydroethidine FACS, empty vector-transfected cells. Type of data set: cell-based, human. As to the method: as §6, §7, §5
The next data set relates to Fdxr in D1 and E1 cells. The data set is described as follows: Immunoblot of Fdxr protein level after proteasome inhibition. It counts as cell-based. The note with it: 4 h after MG132 treatment (25 μA). As to the method:
FIG. 5B, immunoblot analysis of Fdxr expression in D1 and E1 cells after a 4-h treatment with 25 μA MG132, a proteasome inhibitor.
as §1

`N.N.[Cl][Pt][Cl]` [cisplatin, Cisplatin]: in the data set on PonA-induced D1 cells, the “activated caspase 3 and related Parp1 cleavage” value is “observed”. Also, the sub-G1 population turned out to be 2.3% in the data set on H1299 E1 cells [1] (cisplatin 0.05 mM); 7% with H1299 E1 cells [1] (cisplatin 0.1 mM); 14.6% in the data set on H1299 E1 cells [1] (cisplatin 0.2 mM); 5% in the data set with H1299 D1 cells [2] (cisplatin 0.05 mM); 16.2% with H1299 D1 cells [2] (cisplatin 0.1 mM); 30% with H1299 D1 cells [2] (cisplatin 0.2 mM). In the data set on H1299 D1 and E1 cells, the “sensitivity of D1 cells relative to E1 cells (MTS cell viability)” value was “more sensitive”.

Consider `OO` [H2O2], for which the G2/M arrest was found to be 27.5% with H1299 E1 cells [1] (48 h after 0.25 mM H2O2), 29% with H1299 E1 cells [1] (48 h after 0.5 mM H2O2), 45.5% in the data set on H1299 D1 cells [2] (48 h after 0.25 mM H2O2) and 49.5% in the data set on H1299 D1 cells [2] (48 h after 0.5 mM H2O2). For the same molecule, the “% ROS-positive cells” value in the data set on H1299 D1 cells [3] (0.5 mM H2O2) was found to be 20%; with H1299 D1 cells [3] (1.0 mM H2O2), 78%; in the data set on H1299 E1 cells [4] (0.5 mM H2O2), 3.5%; in the data set with H1299 E1 cells [4] (1.0 mM H2O2), 25%. The colony formation entry in the data set on H1299/D1 cells is given as “No colonies were detected”. In addition, in the data set with H1299 D1 and E1 cells (24 h after H2O2 treatment (0.125, 0.25, 0.5 mM, 4 h)), the “cell viability (MTS cytotoxicity assay)” value was “reduced cell viability or growth arrest in both E1 and D1 cells, but this phenotype was more pronounced in D1 cells”. The toxicity to cells result is reported as “toxicity was observed” in the data set with MKN74A116 cells; “toxic” in [5] (Fhit-expressing A549, 2 mM H2O2); “not to non-expressing cells” in data set [6] (non-expressing A549, 2 mM H2O2). Further, the “ROS generation (fraction of ROS positive cells)” value in [5] (FHIT-transfected A549, 0.5 mM H2O2, 5 h) came to 16.7%; in data set [5] (FHIT-transfected A549, 1.0 mM H2O2, 5 h), 18.8%; in data set [6] (empty vector A549, 0.5 mM H2O2, 5 h), 5.4%; in [6] (empty vector A549, 1.0 mM H2O2, 5 h), 7.7%.

In the case of `CC(C)C[C@@H](C=O)NC(=O)[C@H](CC(C)C)NC(=O)[C@H](CC(C)C)NC(=O)OCc1ccccc1` [MG132] (Cbz-Leu-Leu-Leu-aldehyde), the “Fdxr protein level in D1 cells compared with E1 cells” value in the data set on Fdxr in D1 and E1 cells was “significant increase”.

Turning to `CC(=O)O[C@H]1C(=O)[C@@]2(C)[C@H]([C@H](OC(=O)c3ccccc3)[C@]3(O)C[C@H](OC(=O)[C@H](O)[C@@H](NC(=O)c4ccccc4)c4ccccc4)C(C)=C1C3(C)C)[C@]1(OC(C)=O)CO[C@@H]1C[C@@H]2O` [paclitaxel, Paclitaxel], in the data set on PonA-induced D1 cells, the “activated caspase 3 and related Parp1 cleavage” value was “observed”. The sub-G1 population in the data set on H1299 E1 cells [1] (paclitaxel 50 ng/ml) is 4%; in the data set on H1299 E1 cells [1] (paclitaxel 100 ng/ml), 16.7%; in the data set with H1299 E1 cells [1] (paclitaxel 500 ng/ml), 30%; in the data set with H1299 D1 cells [2] (paclitaxel 50 ng/ml) it was 9.6%; with H1299 D1 cells [2] (paclitaxel 100 ng/ml), 36%; with H1299 D1 cells [2] (paclitaxel 500 ng/ml), 40%. In addition, in the data set on H1299 D1 and E1 cells, the “sensitivity of D1 cells relative to E1 cells (MTS cell viability)” value was “more sensitive”.
